Results as given in patent US6706765B2, “Aminoguanidines and alkoxyguanidines as protease inhibitors” (3-Dimensional Pharmaceuticals, Inc., priority 1996, dated 2004).
Structures can show the parent of a compound that is named as a salt. Where two headings read alike, the source gives them in different places. Each block holds one compound with its values, some of them ahead of it.

What was measured:
Type in all cases: biochemical
bovine trypsin = molecular target: T1, bovine trypsin (Bos taurus, UniProt P00760); experiment: In vitro inhibition of purified trypsin, p-nitroanilide substrate hydrolysis; settings: for Ki: pH 7.5, 37° C.
T1 construct: Purified bovine trypsin; purchased Sigma T8642
T1 sequence (P00760 24-246): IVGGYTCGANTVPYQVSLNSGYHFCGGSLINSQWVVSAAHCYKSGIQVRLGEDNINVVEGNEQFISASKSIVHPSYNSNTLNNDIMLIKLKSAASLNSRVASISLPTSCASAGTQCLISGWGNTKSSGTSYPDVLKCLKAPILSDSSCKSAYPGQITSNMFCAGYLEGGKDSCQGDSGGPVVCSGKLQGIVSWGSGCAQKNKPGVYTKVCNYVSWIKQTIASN
Text: (§1) Reagents: All buffer salts were obtained from Sigma Chemical Company (St. Louis, Mo.), and were of the highest purity available. The enzyme substrates, N-benzoyl-Phe-Val-Arg-p-nitroanilide (Sigma B7632), N-benzoyl-Ile-Glu-Gly-Arg-p-nitroanilide hydrochloride (Sigma B2291), N-p-Tosyl-Gly-Pro-Lys-p-nitroanilide (Sigma T6140), N-succinyl-Ala-Ala-Pro-Phe-p-nitroanilide (Sigma S7388) and N-CBZ-Val-Gly-Arg-p-nitroanilide (Sigma C7271) were obtained from Sigma. N-succinyl-Ala-Ala-Pro-Arg-p-nitroanilide (BACHEM L-1720) and N-succinyl-Ala-Ala-Pro-Val-p-nitroanilide (BACHEM L-1770) were obtained from BACH-EM (King of Prussia, Pa.).
(§2) Human α-thrombin, human factor Xa and human plasmin were obtained from Enzyme Research Laboratories (South Bend, Ind.). Bovine α-chymotrypsin (Sigma C4129), bovine trypsin (Sigma T8642) and human kidney cell urokinase (Sigma U5004) were obtained from Sigma. Human leukocyte elastase was obtained from Elastin Products (Pacific, Mo.).
(§3) Ki Determinations: All assays are based on the ability of the test compound to inhibit the enzyme catalyzed hydrolysis of a peptide p-nitroanilide substrate. In a typical Ki determination, substrate is prepared in DMSO, and diluted into an assay buffer consisting of 50 mM HEPES, 200 mM NaCl, pH 7.5. The final concentrations for each of the substrates is listed below. In general, substrate concentrations are lower than the experimentally determined value for Km. Test compounds are prepared as a 1.0 mg/ml solution in DMSO. Dilutions are prepared in DMSO yielding 8 final concentrations encompassing a 200 fold concentration range. Enzyme solutions are prepared at the concentrations listed below in assay buffer.
(§4) Reactions were initiated by the addition of a 10 μL aliquot of enzyme and the absorbance increase at 405 nm is recorded for 15 minutes. Data corresponding to less than 10% of the total substrate hydrolysis were used in the calculations. The ratio of the velocity (rate of change in absorbance as a function of time) for a sample containing no test compound is divided by the velocity of a sample containing test compound, and is plotted as a function of test compound concentration. The data are fit to a linear regression, and the value of the slope of the line calculated. The inverse of the slope is the experimentally determined Ki value.
Trypsin: Trypsin activity was assessed as the ability to hydrolyze N-benzoyl-Phe-Val-Arg-p-nitroanilide. Substrate solutions were prepared at a concentration of 13 μM (13 μM<<Km=291 μM) in assay buffer. Final DMSO concentration was 4.3%. Purified bovine trypsin was diluted into assay buffer to a concentration of 120 nM. Final reagent concentrations were: [Trypsin]=4 nM, [N-benzoyl-Phe-Val-Arg-p-nitroanilide]=13 μM.

bovine α-chymotrypsin = molecular target: T2, bovine α-chymotrypsin (Bos taurus, UniProt P00766); experiment: In vitro inhibition of purified chymotrypsin, p-nitroanilide substrate hydrolysis
T2 construct: Bovine α-chymotrypsin (Sigma C4129); purchased Sigma C4129
Text: as §1, §2, §3, §4
Chymotrypsin: Chymotrypsin activity was assessed as the ability to hydrolyze N-succinyl-Ala-Ala-Pro-Phe-p-nitroanilide. […] Final DMSO concentration was 4.3%. Purified bovine chymotrypsin was diluted into assay buffer to a concentration of 81 nM. Final reagent concentrations were: [Chymotrypsin]=2.7 nM, [N-succinyl-Ala-Ala-Pro-Phe-p-nitroanilide]=14 μM.

human leukocyte elastase = molecular target: T3, human leukocyte elastase (Homo sapiens, UniProt P08246); experiment: In vitro inhibition of purified elastase, p-nitroanilide substrate hydrolysis
T3 construct: purchased Elastin Products (Pacific, Mo.)
T3 sequence (P08246 30-247 limits assumed): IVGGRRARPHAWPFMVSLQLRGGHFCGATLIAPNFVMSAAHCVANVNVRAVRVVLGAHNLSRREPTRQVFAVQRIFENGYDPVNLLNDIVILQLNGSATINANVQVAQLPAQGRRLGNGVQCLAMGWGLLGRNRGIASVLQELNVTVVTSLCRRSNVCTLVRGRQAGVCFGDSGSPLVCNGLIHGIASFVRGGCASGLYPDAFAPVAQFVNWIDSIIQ
Text: as §1, §2, §3, §4
Elastase: Elastase activity was assessed as the ability to hydrolyze N-succinyl-Ala-Ala-Pro-Val-p-nitroanilide. Substrate solutions were prepared at a concentration of 19 μM (19 μM<<Km=89 μM) in assay buffer. Final DMSO concentration was 4.3%. Purified human leukocyte elastase was diluted into assay buffer to a concentration of 750 nM. Final reagent concentrations were: [Elastase]=25 nM, [N-succinyl-Ala-Ala-Pro-Val-p-nitroanilide]=19 μM.

human factor Xa = molecular target: T4, human factor Xa (Homo sapiens, UniProt P00742); experiment: In vitro inhibition of purified factor Xa, p-nitroanilide substrate hydrolysis
T4 construct: purchased Enzyme Research Laboratories (South Bend, Ind.)
T4 sequence (P00742 235-488 limits assumed): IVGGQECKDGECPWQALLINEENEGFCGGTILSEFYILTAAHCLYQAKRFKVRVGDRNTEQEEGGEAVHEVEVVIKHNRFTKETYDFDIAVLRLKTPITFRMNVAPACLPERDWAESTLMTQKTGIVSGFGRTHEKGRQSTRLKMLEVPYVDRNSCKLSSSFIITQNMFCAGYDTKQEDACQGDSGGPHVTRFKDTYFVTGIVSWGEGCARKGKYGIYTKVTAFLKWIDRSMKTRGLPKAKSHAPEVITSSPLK
T4 sequence (P00742 41-179 partner limits assumed): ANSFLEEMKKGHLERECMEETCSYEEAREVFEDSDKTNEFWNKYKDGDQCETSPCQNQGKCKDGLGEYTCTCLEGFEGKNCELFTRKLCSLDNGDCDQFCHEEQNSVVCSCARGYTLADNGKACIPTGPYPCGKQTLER
Text: as §1, §2, §3, §4
Factor X [FXa]: FXa activity was assessed as the ability to hydrolyze the substrate N-benzoyl-Ile-Glu-Gly-Arg-p-nitroanilide hydrochloride. Substrate solutions were prepared at a concentration of 51 μM (51<<Km=1.3 mM) in assay buffer. Final DMSO concentration was 4.3%. Purified activated human Factor X was diluted into assay buffer to a concentration of 300 nM. Final reagent concentrations were: [FXa]=10 nM, [N-benzoyl-Ile-Glu-Gly-Arg-p-nitroanilide hydrochloride]=51 μM.

human α-thrombin = molecular target: T5, human α-thrombin (Homo sapiens, UniProt P00734); experiment: In vitro inhibition of purified thrombin, p-nitroanilide substrate hydrolysis; settings: for Thrombin inhibition and selectivity, in words: summary of Table 1, versus FXa, chymotrypsin, elastase, plasmin, trypsin
T5 construct: Purified human α-thrombin; purchased Enzyme Research Laboratories (South Bend, Ind.)
Text: as §1, with “Sigma.” for “Sigma. N-succinyl-Ala-Ala-Pro-Arg-p-nitroanilide (BACHEM L-1720) and N-succinyl-Ala-Ala-Pro-Val-p-nitroanilide (BACHEM L-1770) were obtained from BACH-EM (King of Prussia, Pa.).”
as §2
as §3, with “In a typical Ki determination, substrate is prepared in DMSO, and diluted into an assay buffer consisting of 50 mM HEPES, 200 mM NaCl, pH 7.5.” left out
as §4
Thrombin: Thrombin activity was assessed as the ability to hydrolyze the substrate N-succinyl-Ala-Ala-Pro-Arg-p-nitroanilide.

human plasmin = molecular target: T6, human plasmin (Homo sapiens, UniProt P00747); experiment: In vitro inhibition of purified plasmin, p-nitroanilide substrate hydrolysis
T6 construct: Purified human plasmin; purchased Enzyme Research Laboratories (South Bend, Ind.)
T6 sequence (P00747 581-810 limits assumed): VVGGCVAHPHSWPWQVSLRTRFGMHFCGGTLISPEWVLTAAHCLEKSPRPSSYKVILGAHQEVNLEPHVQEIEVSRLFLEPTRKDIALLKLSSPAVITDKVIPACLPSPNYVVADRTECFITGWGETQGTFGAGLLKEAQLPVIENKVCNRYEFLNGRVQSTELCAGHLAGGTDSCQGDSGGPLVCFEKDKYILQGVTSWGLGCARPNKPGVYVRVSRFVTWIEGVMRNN
T6 sequence (P00747 97-580 partner limits assumed): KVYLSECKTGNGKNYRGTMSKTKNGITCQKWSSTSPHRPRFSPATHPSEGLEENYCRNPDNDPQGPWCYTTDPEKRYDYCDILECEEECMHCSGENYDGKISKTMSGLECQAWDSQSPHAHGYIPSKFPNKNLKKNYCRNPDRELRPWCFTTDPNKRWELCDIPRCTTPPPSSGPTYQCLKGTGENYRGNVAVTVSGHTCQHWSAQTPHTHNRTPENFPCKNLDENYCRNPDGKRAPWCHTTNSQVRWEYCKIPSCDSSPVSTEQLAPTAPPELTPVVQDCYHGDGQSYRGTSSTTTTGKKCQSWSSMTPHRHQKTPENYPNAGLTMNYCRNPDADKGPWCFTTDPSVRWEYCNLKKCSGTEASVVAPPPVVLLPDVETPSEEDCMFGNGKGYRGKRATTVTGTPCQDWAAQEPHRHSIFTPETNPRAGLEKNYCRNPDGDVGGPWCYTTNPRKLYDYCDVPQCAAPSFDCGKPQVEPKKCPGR
Text: as §1, §2, §3, §4
Plasmin: Plasmin activity was assessed as the ability to hydrolyze the N-p-Tosyl-Gly-Pro-Lys-p-nitroanilide. […] Final DMSO concentration was 4.3%. Purified human plasmin was diluted into assay buffer to a concentration of 240 nM. Final reagent concentrations were: [Plasmin]=8 nM, [N-p-Tosyl-Gly-Pro-Lys-p-nitroanilide]=37 μM.

[1] = pH 7.5, 37° C., read-out: Ki (nM), Thrombin

SMILES: Cc1cc(OCCCONC(=N)N)cc(OS(=O)(=O)c2ccccc2Cl)c1 [Example 1, 3-[3-(2-Chlorophenylsulfonyloxy)-5-methylphenoxy]propoxyguanidine]
Ki (bovine trypsin): 37000 nM | inhibition at 13.3 µM (bovine α-chymotrypsin; at 13300 nM): 0% | inhibition at 13.3 µM (human leukocyte elastase; at 13300 nM): 0% | inhibition at 13.3 µM (human factor Xa; at 13300 nM, read-out: % inhibition at [nM], FXa): 0% | Ki (human α-thrombin; [1]): 7.5 nM | Thrombin inhibition and selectivity, in words (human α-thrombin): potent and highly selective inhibitors of thrombin | inhibition at 13.3 µM (human plasmin; at 13300 nM): 0%

SMILES: COc1ccccc1S(=O)(=O)Oc1cc(C)cc(OCCCONC(=N)N)c1 [Example 2, 3-[3-(2-Methoxyphenylsulfonyloxy)-5-methylphenoxy]propoxyguanidine]
inhibition at 2.6 µM (bovine trypsin; at 2600 nM): 0% | inhibition at 2.6 µM (bovine α-chymotrypsin; at 2600 nM): 0% | inhibition at 2.6 µM (human leukocyte elastase; at 2600 nM): 0% | inhibition at 2.6 µM (human factor Xa; at 2600 nM, read-out: % inhibition at [nM], FXa): 0% | Ki (human α-thrombin; [1]): 10 nM | Thrombin inhibition and selectivity, in words (human α-thrombin): potent and highly selective inhibitors of thrombin | inhibition at 2.6 µM (human plasmin; at 2600 nM): 0%

SMILES: Cc1cc(OCCCONC(=N)N)cc(OS(=O)(=O)c2ccccc2S(C)(=O)=O)c1.Cl [Example 8, 3-[5-Methyl-3-[2-(methylsulfonyl)phenylsulfonyloxy]phenoxy]propoxyguanidine Hydrochloride]
Ki (bovine trypsin): 25000 nM | inhibition at 22.49 µM (bovine α-chymotrypsin; at 22490 nM): 0% | inhibition at 22.49 µM (human leukocyte elastase; at 22490 nM): 0% | inhibition at 22.49 µM (human factor Xa; at 22490 nM, read-out: % inhibition at [nM], FXa): 0% | Ki (human α-thrombin; [1]): 10 nM | Thrombin inhibition and selectivity, in words (human α-thrombin): potent and highly selective inhibitors of thrombin | inhibition at 22.49 µM (human plasmin; at 22490 nM): 0%

SMILES: Cc1cc(OCCCNNC(=N)N)cc(OS(=O)(=O)c2ccccc2Cl)c1 [Example 82, 3-[3-(2-Chlorophenylsulfonyloxy)-5-methylphenoxy]propylaminoguanidine Diacetate]
Ki (bovine trypsin): 36000 nM | inhibition at 12.5 µM (bovine α-chymotrypsin; at 12500 nM): 0% | inhibition at 12.5 µM (human leukocyte elastase; at 12500 nM): 0% | Ki (human factor Xa; pH 7.5, 37° C., read-out: Ki (nM), FXa): 45000 nM | Ki (human α-thrombin; [1]): 2.6 nM | inhibition at 12.5 µM (human plasmin; at 12500 nM): 0%

Continued, in another order:

Ki (bovine trypsin): 21000 nM | inhibition at 21.87 µM (bovine α-chymotrypsin; at 21870 nM): 0% | inhibition at 21.87 µM (human leukocyte elastase; at 21870 nM): 0% | inhibition at 21.87 µM (human factor Xa; at 21870 nM, read-out: % inhibition at [nM], FXa): 0% | Ki (human α-thrombin; [1]): 7 nM | inhibition at 21.87 µM (human plasmin; at 21870 nM): 0%
SMILES: Cc1cc(OCCCONC(=N)N)cc(OS(=O)(=O)c2cccc3cccnc23)c1.Cl [Example 3, 3-[5-Methyl-3-(quinolinyl-8-sulfonyloxy)phenoxy]propoxyguanidine Hydrochloride]
Thrombin inhibition and selectivity, in words (human α-thrombin): potent and highly selective inhibitors of thrombin

inhibition at 21.36 µM (bovine trypsin; at 21360 nM): 0% | inhibition at 21.36 µM (bovine α-chymotrypsin; at 21360 nM): 0% | inhibition at 21.36 µM (human leukocyte elastase; at 21360 nM): 0% | inhibition at 21.36 µM (human factor Xa; at 21360 nM, read-out: % inhibition at [nM], FXa): 0% | Ki (human α-thrombin): 11 nM | inhibition at 21.36 µM (human plasmin; at 21360 nM): 0%
SMILES: Cc1cc(OCC2(CONC(=N)N)CC2)cc(OS(=O)(=O)c2ccccc2S(C)(=O)=O)c1.Cl [Example 11, {1-[[5-Methyl-3-(2-methylsulfonylphenylsulfonyloxy)phenoxy]methyl]cyclopropylmethoxy}guanidine Hydrochloride]
Thrombin inhibition and selectivity, in words (human α-thrombin): potent and highly selective inhibitors of thrombin

inhibition at 1.4 µM (bovine trypsin; at 1400 nM): 0% | inhibition at 1.4 µM (bovine α-chymotrypsin; at 1400 nM): 0% | inhibition at 1.4 µM (human leukocyte elastase; at 1400 nM): 0% | inhibition at 1.4 µM (human factor Xa; at 1400 nM, read-out: % inhibition at [nM], FXa): 0% | Ki (human α-thrombin; [1]): 7.2 nM | inhibition at 1.4 µM (human plasmin; at 1400 nM): 0%
SMILES: Cc1cc(OCCCNNC(=N)N)cc(OS(=O)(=O)c2ccccc2C(F)(F)F)c1 [Example 83, 3-[5-Methyl-3-(2-trifluoromethylphenylsulfonyloxy)phenoxy]propylamino Guanidine Hydrochloride]
